Here are results for 4 compounds from patent US10300058B2, “Tyrosine kinase inhibitor and uses thereof” (Xuanzhu Pharma Co., Ltd., priority 2014, dated 2019).

One data set deals with wild-type EGFR (WT EGFR) (Homo sapiens (Human), UniProt P00533). As to the kind of experiment: Mobility Shift Assay, in vitro enzyme-inhibiting activity, wild-type EGFR. The format is biochemical. To be noted: Km ATP. In short, it runs like this:
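Compounds in 4-fold dilutions (10 concentrations) preincubated 10 min at room temperature with enzyme, then kinase reaction at 28° C for kinase-dependent time before stop solution. Percent substrate conversion read by Caliper mobility shift; inhibition versus DMSO and blank controls, IC50 fitted.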

The nature of the next data set: Pharmacokinetics in rat. The data set is classed as in vivo. To be noted: male, plasma, SD rat; for bioavailability: read-out: F (absolute bioavailability). The procedure: Test animal: male SD rat, 3 rats, weight: 200-250 g/rat
Blank solvent for intragastric administration (po) of Compound 2, 27: 0.1% Tween 80+2% HPC (hydroxypropyl cellulose),
Preparation: HPC (hydroxypropyl cellulose) (20 g) was weighed, and slowly added to purified water (1000 mL) under stirring, and Tween 80 (1 mL) was added. The mixture was stirred until it became clear, to get a blank solvent of 0.1% Tween 80+2% HPC. Compound 2 (3.21 mg) and Compound 27 (3.03 mg) were weighed, respectively, solvent was added, and the resultant mixture was placed in a tissue grinder, and ground at a speed of 1000 r/min. After homogeneous dispersion, a solution for intragastric administration at a theoretical concentration of 0.5 mg/mL was obtained. […] After homogeneous dispersion, a solution for intragastric administration at a theoretical concentration of 1.0 mg/mL was obtained.
A blank solvent for intravenous injection (iv) for Compound 2, 27, 31: 5% DMSO+10% PEG400+85% (28% HP-β-CD)
Compound 2 (2.98 mg), Compound 27 (2.98 mg), and Compound 31 (3.27 mg) were weighed, respectively, and blank solvent for intravenous injection was added. The resultant mixture was mixed homogeneously under vortexing, placed in a 50° C. constant temperature water bath for 20 min, and filtrated through a 0.22 μm filter membrane to get a clear and transparent solution for intravenous injection at a theoretical concentration of 0.5 mg/mL.
Formulation of Compound 31 for intravenous injection (iv): 20% DMF+20% PEG400+60% sterile water for injection
Compound 31 (3.10 mg) was weighed, and dissolved in 1.262 mL DMF (N,N-dimethylformamide) ultrasonically. 1.262 mL PEG400 was added, and the resultant mixture was mixed homogeneously under vortexing. 3.786 mL sterile water for injection was added. The mixture was vertexed homogeneously to get a clear and transparent solution for intravenous injection at a theoretical concentration of 0.5 mg/ml.
po: 0.167 h, 0.5 h, 1 h, 2 h, 4 h, 6 h, 8 h, 24 h after administration.
About 100 μL whole blood was collected from caudal vein at each time point, added to an anticoagulation tube containing K2EDTA, and centrifuged at 8000 r/min for 6 min in a low-temperature centrifuge to separate the plasma; the plasma was stored in a refrigerator at −80° C.
The plasma samples of Compound 2, 27, and 31 were analyzed by means of protein precipitation: to 30 μL plasma, 200 μL internal standard (acetonitrile solution containing 50 ng/mL CNX-2006, the structure of which is
[drawing 56] prepared by reference to the method in Patent WO2012064706A1) was added; the resultant mixture was vortexted for 10 min at 1000 r/min, and centrifuged for 20 min at 4000 r/min; to 100 μL supernatant, 100 μL water was added; the resultant mixture was mixed homogeneously under vortexing and analyzed by LC-MS/MS.

Chain of wild-type EGFR (WT EGFR) (P00533 25-1210): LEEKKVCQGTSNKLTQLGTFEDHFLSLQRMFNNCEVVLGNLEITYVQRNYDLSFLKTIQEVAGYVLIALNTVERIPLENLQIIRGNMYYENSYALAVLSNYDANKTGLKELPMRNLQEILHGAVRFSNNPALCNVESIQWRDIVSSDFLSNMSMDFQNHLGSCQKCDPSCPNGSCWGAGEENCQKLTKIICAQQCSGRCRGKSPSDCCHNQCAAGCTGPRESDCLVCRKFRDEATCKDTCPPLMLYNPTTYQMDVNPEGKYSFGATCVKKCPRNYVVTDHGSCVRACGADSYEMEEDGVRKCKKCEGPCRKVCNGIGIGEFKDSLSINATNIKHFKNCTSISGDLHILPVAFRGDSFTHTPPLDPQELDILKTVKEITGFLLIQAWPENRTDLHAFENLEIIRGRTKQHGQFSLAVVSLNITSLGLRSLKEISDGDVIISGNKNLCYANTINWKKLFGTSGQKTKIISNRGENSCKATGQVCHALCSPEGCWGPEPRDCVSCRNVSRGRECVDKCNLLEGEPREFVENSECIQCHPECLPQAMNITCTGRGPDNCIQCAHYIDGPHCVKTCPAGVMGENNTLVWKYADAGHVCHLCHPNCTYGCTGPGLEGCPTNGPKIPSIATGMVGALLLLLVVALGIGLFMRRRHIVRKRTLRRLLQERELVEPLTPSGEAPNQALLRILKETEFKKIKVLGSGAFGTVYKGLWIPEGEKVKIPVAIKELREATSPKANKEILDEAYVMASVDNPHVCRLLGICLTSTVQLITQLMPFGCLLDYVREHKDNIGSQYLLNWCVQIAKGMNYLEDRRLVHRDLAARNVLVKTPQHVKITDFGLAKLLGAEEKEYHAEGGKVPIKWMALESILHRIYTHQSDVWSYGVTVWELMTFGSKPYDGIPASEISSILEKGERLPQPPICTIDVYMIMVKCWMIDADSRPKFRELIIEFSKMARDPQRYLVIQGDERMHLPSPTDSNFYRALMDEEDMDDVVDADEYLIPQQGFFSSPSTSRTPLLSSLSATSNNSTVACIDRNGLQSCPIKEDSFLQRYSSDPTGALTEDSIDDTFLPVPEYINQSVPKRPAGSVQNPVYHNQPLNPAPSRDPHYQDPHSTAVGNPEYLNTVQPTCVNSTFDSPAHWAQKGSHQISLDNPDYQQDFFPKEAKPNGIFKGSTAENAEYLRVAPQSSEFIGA

As usually defined, the IC50 is the concentration that gives 50% inhibition. Regarding `C=CC(=O)Nc1cccc(Nc2nc(Nc3ccc(N4CCC(N5CCOCC5)CC4)cc3OC)ncc2C(F)(F)F)c1` [Compound 28, N-(3-((2-((2-methoxy-4-(4-morpholinopiperidin-1-yl)phenyl)amino)-5-(trifluoromethyl)pyrimidin-4-yl)amino)phenyl)acrylamide], the IC50 at wild-type EGFR (WT EGFR) (Table 4, unit inferred) turned out to be 73 nM.

Broadly, the AUC(0-t) is exposure summed from dosing to a finite time, without extrapolation to infinity. A low value points to low exposure. Usually clearance stands for a measure of how efficiently the substance is removed, as volume per time. What is called bioavailability is dose-corrected exposure relative to a reference, in per cent. For the compound `C=CC(=O)Nc1cccc(Nc2nc(Nc3ccc(C4CCN(C(C)=O)CC4)cc3OC)ncc2C(F)(F)F)c1` [Compound 2, N-(3-((2-((4-(1-acetylpiperidin-4-yl)-2-methoxyphenyl)amino)-5-(trifluoromethyl)pyrimidin-4-yl)amino)phenyl)acrylamide], at wild-type EGFR (WT EGFR) (Table 1), the half-inhibitory concentration (IC50) worked out at 552 nM. For the same compound, the concentration for half-maximal inhibition (IC50) at wild-type EGFR (WT EGFR) (Table 5) is 344 nM. Also, in the data set “Pharmacokinetics in rat” (iv, 1 mg/kg), the AUC(0-t) was 723 ng·h/mL and the clearance was 26 mL/min/kg. In addition, in “Pharmacokinetics in rat” (po, 2 mg/kg), the exposure AUC(0-t) amounted to 267 ng·h/mL and the bioavailability came out at 19%.

On to `C=CC(=O)Nc1cccc(Nc2nc(Nc3ccc(C4CCN(S(C)(=O)=O)CC4)cc3OC)ncc2C(F)(F)F)c1` [Compound 27, N-(3-((2-((2-methoxy-4-(1-(methylsulfonyl)piperidin-4-yl)phenyl)amino)-5-(trifluoromethyl)pyrimidin-4-yl)amino)phenyl)acrylamide], for which the IC50 at wild-type EGFR (WT EGFR) (Table 4, unit inferred) was 871 nM. In the data set “Pharmacokinetics in rat” (iv, 1 mg/kg), this compound showed an AUC(0-t) of 774 ng·h/mL and a clearance of 22.7 mL/min/kg. Besides, in “Pharmacokinetics in rat” (po, 2 mg/kg), the exposure AUC(0-t) turned out to be 754 ng·h/mL and the bioavailability came out at 49%.

As for `C=CC(=O)Nc1cccc(Nc2nc(Nc3ccc(N4CC5(CN(C(C)=O)C5)C4)cc3OC)ncc2C(F)(F)F)c1` [Compound 31, N-(3-((2-((4-(6-acetyl-2,6-diazaspiro[3.3]heptan-2-yl)-2-methoxyphenyl)amino)-5-(trifluoromethyl)pyrimidin-4-yl)amino)phenyl)acrylamide], the IC50 on wild-type EGFR (WT EGFR) (Table 7) worked out at 210 nM. Moreover, in “Pharmacokinetics in rat” (iv, 0.74 mg/kg), the AUC(0-t) worked out at 1020 ng·h/mL and the clearance was 12.2 mL/min/kg.
